Columns and labels:
[1] = test system: monocyte-macrophage (Mo/M.PHI.) cultures; test: cytotoxicity in monocyte-macrophage cultures; format: cell-based
Experimental: (§1) Initial anti-HIV screening was performed with CEM-SS cells and HIV-1RFusing the XTT cytoprotection assay as previously described (Weislow et al., J. National Cancer Inst. 81: 577-586, (1989)). HIV-1 isolates included common laboratory stains (RF, IIIB and MN), as well as a panel of HIV-1 clinical isolates (Cushman et al., J. Med. Chem. 37: 3040-3050, (1994)). The pyridone-resistant HIV-1A17 isolate (Nunberg et al., J. Virol., 65: 4887-4892 (1991)) was obtained from Emilio Emini at Merck Sharpe and Dohme Laboratories. Phytohemagglutinin-stimulated human peripheral blood lymphocytes (PBLs) and fresh monocyte-macrophage (Mono/MF) cultures were prepared and utilized in antiviral assays as previously described (Rice et al., Proc. Nat'l. Academy Science, USA 90: 9721-9724, (1993)); (Cushman et al., J. Med. Chem. 37: 3040-3050, (1994)). EC50 values for these cultures indicate the drug concentration that provided a 50% reduction in viral p24 production. […] The compounds can be synthesized according to the teachings of Singh et al., Sulfur Letters 8: 107-114, (1988). The 4,5-cis-dihydroxy(1,1-dioxy-1,2,-dithiohexane) compound (NSC 624151) has been abbreviated as 624151 for convenience. MT-2, MT-4, U1, HeLa-CD4-LTR-β-gal and 174xCEM cells were obtained from the AIDS Research and Reference Program (National Institute of Allergy and Infectious Disease, National Institutes of Health, Bethesda, Md. USA), as were the HIV-2MS and the AZT-resistant HIV-1G910-6 isolates.

HIV-1 BAKI(SI) = test: antiviral assay in PBL (p24), clinical isolate BAKI; format: cell-based; conditions: Human immunodeficiency virus 1, cell-free p24
Experimental: as §1, with “MT-2, MT-4, U1, HeLa-CD4-LTR-β-gal and 174xCEM cells were obtained from the AIDS Research and Reference Program (National Institute of Allergy and Infectious Disease, National Institutes of Health, Bethesda, Md. USA), as were the HIV-2MS and the AZT-resistant HIV-1G910-6 isolates.” left out

HIV-1 Calo-139 = test: XTT cytopathicity assay, drug resistant HIV-1; format: cell-based; conditions: MT-2, Calo-139
Experimental: as §1
(§2) ^a Anti-HIV studies utilizing lymphocytederived cell lines were
(§3) performed using the XTT cytopathicity assay, while antiviral assays

HIV-1 DPS-181 = test: XTT cytopathicity assay, drug resistant HIV-1; format: cell-based; conditions: MT-2, DPS-181
Experimental: as §1, §2, §3

HIV-1 E-BPTU-181 = test: XTT cytopathicity assay, drug resistant HIV-1; format: cell-based; conditions: MT-2, E-BPTU-181
Experimental: as §1, §2, §3

HIV-1 HEPT-236 = test: XTT cytopathicity assay, drug resistant HIV-1; format: cell-based; conditions: MT-2, HEPT-236
Experimental: as §1, §2, §3

HIV-1 OC-100 = test: XTT cytopathicity assay, drug resistant HIV-1; format: cell-based; conditions: MT-2, OC-100
Experimental: as §1, §2, §3

HIV-1 TIBO-98/100 = test: XTT cytopathicity assay, drug resistant HIV-1; format: cell-based; conditions: MT-2, TIBO-98/100
Experimental: as §1, §2, §3

HIV-1 Thiazol-108 = test: XTT cytopathicity assay, drug resistant HIV-1; format: cell-based; conditions: MT-2, Thiazol-108
Experimental: as §1, §2, §3

HIV-1 UC38-181 = test: XTT cytopathicity assay, drug resistant HIV-1; format: cell-based; conditions: MT-2, UC38-181
Experimental: as §1, §2, §3

HIV-2ROD = test: XTT cytopathicity assay, other retroviruses; format: cell-based; conditions: Human immunodeficiency virus 2, CEM-SS
Experimental: as §1, with “MT-2, MT-4, U1, HeLa-CD4-LTR-β-gal and 174xCEM cells were obtained from the AIDS Research and Reference Program (National Institute of Allergy and Infectious Disease, National Institutes of Health, Bethesda, Md. USA), as were the HIV-2MS and the AZT-resistant HIV-1G910-6 isolates.” left out

[2] = test system: attachment of HIV-1 to fresh human PBLs; test: virus attachment assay, HIV-1RF to PBLs (p24-based); format: cell-based
Experimental: Binding of HIV-1RF to PBLs was measured by a p24-based assay (Rice, et al., Proc. Nat'l. Academy of Science USA 90: 9721-9724, (1993)). Briefly, 5×10^5 PBLs were incubated with a concentrated stock of virus for 30 min. at 37° C. in the absence or presence of various concentrations of 624151, the unbound virus was washed away, and the cell-associated virus was solubilized in 1% Triton X-100, 1% BSA and analyzed by the p24 antigen capture assay as previously described. The binding of gp120to CD4 was analyzed using an antigen capture ELISA. All steps of the assay were carried out according to the manufacturer's protocols.
^.dagger. Attachment of HIV1 to fresh human PBLs, binding of gp120 to […]

HIV-1 p7NC protein = target: T1, HIV-1 p7NC protein (Human immunodeficiency virus type 1 group M subtype B, UniProt P04591); test: TSQ zinc release assay from p7NC; format: biochemical; conditions: 10 μM, 2 hours, FIG. 1(B), in words
T1 construct: recombinant HIV-1 p7NC protein
Experimental: Fluorescence measurements of the Trp^37 residue in the C-terminal zinc finger of the recombinant HIV-1 p7NC protein were performed as previously described (Rice et al., Science 270:1194, 1995). The p7NC protein was prepared at 20 μg/ml in 10 mM sodium phosphate buffer (pH 7.0), treated with 25 μM of each compound, then after indicated time intervals the samples were diluted 1/10 in 10 mM sodium phosphate buffer (pH 7.0) and the fluorescence intensity measured. The excitation and emission wavelengths utilized with the Shimadzu RF5000 spectrofluorimeter were 280 nm and 351 nm, respectively. In an alternate assay, the zinc-selective fluorescent probe N-(6-methoxy-8quinolyl-)-p-toluenesulfonamide (TSQ, Molecular Probes, Eugene, Oreg.) originally described by Fredrickson (J. Neurosci. Meth. 20:91, 1987) was utilized to measure zinc released from the p7NC protein in vitro. Briefly, 2 μM recombinant HIV-1 p7NC protein in 10 mM sodium phosphate buffer, pH 7.0, 10% glycerol was treated with 10 μM 624151 ([…] total volume in 96-well plates), and the time-dependent increase in fluorescence was measured on a Labsystems Fluoroskan II (360 nm excitation filter and 460 nm emission filter) over a period of 2 hours. […] Virus pellets were resolved by non-reducing SDS-PAGE and analyzed by immunoblot using monospecific rabbit antisera to the purified p7NC protein. […]

For `O=S1(=O)C[C@H](O)[C@H](O)CS1` (relative stereo) [NSC 624151, cis-1,1-dioxo[1,2]dithiane-4,5-diol], the IC50 [1] was over 100 µM, the EC50 (HIV-1 BAKI(SI)) was 19 µM and the EC50 (HIV-1 Calo-139) was 15 µM. For the same molecule, the EC50 (HIV-1 DPS-181) was 16.5 µM, the EC50 (HIV-1 E-BPTU-181) was 17 µM and the EC50 (HIV-1 HEPT-236) was 16 µM. For the same molecule, the EC50 (HIV-1 OC-100) was 12.7 µM, the EC50 (HIV-1 TIBO-98/100) was 16 µM and the EC50 (HIV-1 Thiazol-108) was 17 µM. The EC50 (HIV-1 UC38-181) was 17 µM, the EC50 (HIV-2ROD) was 15.6 µM and the Attachment ([2]; Table 6) was “NI100μμ”. The “inhibition of attachment of HIV-1 virions to target cells” value ([2]; in words) was “did not inhibit” and the “zinc ejection from p7NC measured with TSQ” value (HIV-1 p7NC protein) was “promote zinc ejection from the p7NC protein in vitro was confirmed”.
